Results on 99 molecules are retold here after ChEMBL document CHEMBL3507680, “University of Dundee, Gates Library screen for HepG2 cell viability”.

The data set in a line: Human HepG2 cell viability assay in 384 well format. In kind it is toxicity, cell-based. Details: dose 125 nL, time 70.5 hour; concentration not given beside the values. The conditions noted are these: HepG2 cells, read-out: Inhibition.

For `CO[C@H]1CCN(C(=O)c2ccc3oc(C)cc3c2)C[C@@]12CCCO2`, the cytotoxicity at 70.5 h was -5.42%.

Turning to `Cc1nccc(CN2CC[C@@]3(CCCN3Cc3ccccc3)[C@@H](O)C2)n1`, the cytotoxicity at 70.5 h was found to be 1.99%.

Turning to `Cc1cccnc1CN1CC[C@H](Oc2cccc(F)c2)[C@@](C)(O)C1`, the cytotoxicity at 70.5 h was -0.828%.

Regarding `C[C@]1(O)CN(CCO)CC[C@@H]1Oc1cccc(F)c1`, the cytotoxicity at 70.5 h was -2.99%.

For `Cc1ccc(CN2CCCC(c3cncc(C)n3)C2)cn1` (centres undefined), the cytotoxicity at 70.5 h is -2.94%.

With `Cc1cnc(CC2COCCN(Cc3nccn3C)C2)cn1` (centres undefined), the cytotoxicity at 70.5 h is -1.89%.

Turning to `Cn1ccnc1CC1CCCN(C(=O)Cc2ccccc2)C1` (centres undefined), the cytotoxicity at 70.5 h was -1.68%.

Turning to `CC(C)N1CCC(c2cc(C(F)(F)F)n3ccnc3n2)CC1`, the cytotoxicity at 70.5 h is 12.6%.

`CC(=O)N1CCN([C@@H]2CCC[C@@H](N(C)C(=O)C3CC3)[C@H]2O)CC1`: the cytotoxicity at 70.5 h was -1.88%.

For the molecule `CNc1nc(C2CCCN2C(C)=O)nc2c1CN(C1CCCC1)CC2` (centres undefined), the cytotoxicity at 70.5 h was -4.73%.

With `Cc1csc(C(=O)N2CCC(O)(CN3CCc4ccccc4C3)C2)c1` (centres undefined), the cytotoxicity at 70.5 h was -3.4%.

Turning to `CN(C)S(=O)(=O)N1CCCC1c1cccc(-n2ccnc2)n1` (centres undefined), the cytotoxicity at 70.5 h is -4.96%.

With `O=S(=O)(c1ccc(F)cc1)N1CCCCC1c1cc[nH]n1` (centres undefined), the cytotoxicity at 70.5 h is -6.41%.

`O=S(=O)(c1ccccc1F)N1CCCCC1c1cc[nH]n1` (centres undefined): the cytotoxicity at 70.5 h was -5%.

On to `Cc1cccc(C(=O)N2CCCCC2c2[nH]ncc2S(C)(=O)=O)c1` (centres undefined), for which the cytotoxicity at 70.5 h is -2.12%.

As to `CNc1cncc(C2CCCN2C(=O)Cn2c(=O)oc3ccccc32)n1` (centres undefined), the cytotoxicity at 70.5 h is -5.11%.

Regarding `O=C1CCCN1CCCC(=O)N1CCCC(Cc2cccnc2)C1` (centres undefined), the cytotoxicity at 70.5 h was -4.43%.

As to `CNc1cncc(C2CCCN2C(=O)c2ccc3nc(C)[nH]c3c2)n1` (centres undefined), the cytotoxicity at 70.5 h was -3.29%.

Consider `Cc1ncsc1-c1nnc(C2CCN(Cc3ccccc3F)CC2)o1`, for which the cytotoxicity at 70.5 h is -0.587%.

In the case of `CC(C)c1nccn1-c1cncc(C2CCCN(C3CCCC3)C2)n1` (centres undefined), the cytotoxicity at 70.5 h came out at 19.3%.

With `O=C(C1CCCC1)N1CCCC(c2cccc(-n3ccnc3)n2)C1` (centres undefined), the cytotoxicity at 70.5 h was 16.6%.

`NC[C@H]1CC[C@H](C(NC(=O)CC2CCCC2)c2ccccn2)CC1` (some centres undefined): the cytotoxicity at 70.5 h was -0.374%.

With `CNc1ncccc1CN1CCCCC1c1ccnc(N)n1` (centres undefined), the cytotoxicity at 70.5 h was -3.08%.

On to `COc1ccccc1C(=O)NC(c1ccccn1)[C@H]1CC[C@H](CN)CC1` (some centres undefined), for which the cytotoxicity at 70.5 h was -4.28%.

On to `CN1CCc2nc(C3CCCN(C(=O)CC4CCCCC4)C3)ncc2C1` (centres undefined), for which the cytotoxicity at 70.5 h came to 0.186%.

Take `CN(C)S(=O)(=O)N1CCCC(c2cccc(Cc3ccc(F)cc3)n2)C1` (centres undefined): the cytotoxicity at 70.5 h worked out at 3.53%.

Turning to `COCCN1CCCC(c2nccnc2Nc2nc(C)cs2)C1` (centres undefined), the cytotoxicity at 70.5 h was -4.96%.

As for `CC(C)(C)NC(=O)Cn1c(=O)n(Cc2ccco2)c2ncccc21`, the cytotoxicity at 70.5 h was -3.69%.

Turning to `CCc1cc(O)nc(C2CCCN(Cc3ccncc3)C2)n1` (centres undefined), the cytotoxicity at 70.5 h is -1.03%.

Consider `COc1cc2nc3n(c(=O)c2cc1OC)CCN(C(=O)C1CC1)CC3`, for which the cytotoxicity at 70.5 h was 20%.

As to `CCN1CCN(Cc2c(-c3ccco3)[nH]c3ncccc23)CC1`, the cytotoxicity at 70.5 h was -3.87%.

Turning to `Cc1ccc(C(=O)N2CCc3nc4c(C)csc4c(=O)n3CC2)cn1`, the cytotoxicity at 70.5 h was -4.08%.

As for `O=C(C1CCCCC1)N1CCC(c2n[nH]c3nccnc23)CC1`, the cytotoxicity at 70.5 h was -2.95%.

As for `COCc1cc(O)nc(C2CCCN(Cc3ccc(F)cc3)C2)n1` (centres undefined), the cytotoxicity at 70.5 h is -0.561%.

As to `COCc1cc(O)nc(C2CCCN(Cc3cccc(OC)c3)C2)n1` (centres undefined), the cytotoxicity at 70.5 h was -1.68%.

As to `CCn1cc(C(=O)N2CCOC(c3nc(-c4cccs4)no3)C2)cn1` (centres undefined), the cytotoxicity at 70.5 h was -2.41%.

For the molecule `O=C(N[C@@H]1CN(Cc2ccc(F)c(F)c2)C[C@H]1O)c1cscn1`, the cytotoxicity at 70.5 h is -5.02%.

With `Cc1ccc(C(=O)N2CCC3(CC(N(C)c4ccncn4)C3)C2)cn1` (centres undefined), the cytotoxicity at 70.5 h is -2.36%.

Take `Cc1noc(C)c1C(=O)N1CCC2(CC(N(C)c3ccncn3)C2)C1` (centres undefined): the cytotoxicity at 70.5 h was -6.65%.

With `CC(=O)NC[C@]1(O)CCN(C(=O)c2ccc3c(c2)CCC3)C[C@H]1O`, the cytotoxicity at 70.5 h is -3.52%.

On to `CC(=O)N1CCN([C@@H]2CC[C@@H](N(C)C(=O)C3CCCCC3)[C@H]2O)CC1`, for which the cytotoxicity at 70.5 h is -5.4%.

With `Cc1ncsc1CN1CC[C@](C)(O)[C@@H](Oc2cccc(F)c2)C1`, the cytotoxicity at 70.5 h is -3.09%.

As for `CC(=O)NC[C@]1(O)CCN(C(=O)c2ccc3c(c2)OCO3)C[C@H]1O`, the cytotoxicity at 70.5 h was -4.98%.

As to `Cc1ncsc1-c1nnc(C2CCN(Cc3cccc(Cl)c3)CC2)o1`, the cytotoxicity at 70.5 h is -1.29%.

For the molecule `Cc1ncsc1-c1nnc(C2CCN(Cc3ccccc3Cl)CC2)o1`, the cytotoxicity at 70.5 h is -0.461%.

Turning to `COc1ccc(CN2CCC(c3nnc(-c4scnc4C)o3)CC2)cc1`, the cytotoxicity at 70.5 h was -3.83%.

Consider `CN(C)[C@@H]1CN(C(=O)COc2cccc(F)c2)C[C@H]1O`, for which the cytotoxicity at 70.5 h is -9.79%.

With `C[C@]1(O)CN(Cc2ccc(C(=O)O)cc2)CC[C@@H]1Oc1cccc(F)c1`, the cytotoxicity at 70.5 h was -10.9%.

As for `CCc1nccn1-c1cccc(C2CCCN2S(=O)(=O)N(C)C)n1` (centres undefined), the cytotoxicity at 70.5 h was -7.54%.

Turning to `COCC(=O)N1CCC(c2n[nH]c3nccnc23)CC1`, the cytotoxicity at 70.5 h was -7.45%.

Consider `CNc1ccc(CC2CCCN(C(=O)c3scnc3C)C2)nn1` (centres undefined), for which the cytotoxicity at 70.5 h was -5.63%.

For `c1cnc(N2CCCC(c3n[nH]c4ncccc34)C2)nc1` (centres undefined), the cytotoxicity at 70.5 h was -4.04%.

Take `Cc1ncccc1Oc1nccnc1C1CCN(S(C)(=O)=O)CC1`: the cytotoxicity at 70.5 h was -5.66%.

`CCc1cc(=O)[nH]c(-c2ccc(NC(C)COC)nc2)n1` (centres undefined): the cytotoxicity at 70.5 h is 2.74%.

As to `O=C(Nc1ccc(-n2ccc(C(=O)O)n2)cc1)c1ccccc1`, the cytotoxicity at 70.5 h was -1.13%.

For `CC(=O)NCC(=O)Nc1cc(C)n(-c2ccc(Cl)cc2Cl)n1`, the cytotoxicity at 70.5 h was -0.82%.

For `O=C(O)c1ccn(-c2ccccc2NC(=O)c2ccccc2Cl)n1`, the cytotoxicity at 70.5 h is -3.53%.

`CC1CCN(CCNC(=O)c2sccc2C2CC2)CC1`: the cytotoxicity at 70.5 h was -5.27%.

Take `Cc1ccc(OCCN(C)C2CCOC2=O)cc1` (centres undefined): the cytotoxicity at 70.5 h is -5.65%.

Consider `OCC1(NCc2cccc(-n3cccn3)c2)CCOCC1`, for which the cytotoxicity at 70.5 h is -1.42%.

For `COCCN(CCOC)C(=O)c1cnn(C)c1C`, the cytotoxicity at 70.5 h is -10.4%.

Take `COCCN(Cc1ccccc1)C(=O)c1cnn(C)c1C`: the cytotoxicity at 70.5 h was -8.55%.

For `O=C(O)c1ccn(-c2cccc(NC(=O)c3ccccc3Cl)c2)n1`, the cytotoxicity at 70.5 h was -6.97%.

For the molecule `CCN(CC)C(CNC(=O)c1cccnc1-n1cncn1)c1ccsc1` (centres undefined), the cytotoxicity at 70.5 h was -7.63%.

As to `COCCOCC1CCN(C(=O)c2ccc3[nH]cnc3c2)C1` (centres undefined), the cytotoxicity at 70.5 h is 2.45%.

For `Cc1ccccc1NC(=O)CCNC(=O)c1ccoc1`, the cytotoxicity at 70.5 h came to 2.88%.

Regarding `CN(C)c1ncccc1CNC(=O)CCNc1ncccn1`, the cytotoxicity at 70.5 h was -9.01%.

With `CCC(CNS(=O)(=O)c1cccc(C(=O)OC)c1)N1CCCC1` (centres undefined), the cytotoxicity at 70.5 h was -10.7%.

For the molecule `CN(Cc1cnn(C)c1)C(=O)Nc1cccnc1-n1cccn1`, the cytotoxicity at 70.5 h stood at 14.6%.

In the case of `Cn1cc(S(=O)(=O)N(Cc2ccc(F)cc2F)C2CC2)cc1C(N)=O`, the cytotoxicity at 70.5 h is -7.08%.

For `CCCN(CC(F)(F)F)S(=O)(=O)c1cc(C(N)=O)n(C)c1`, the cytotoxicity at 70.5 h was -8.17%.

Turning to `COc1ncccc1CNCc1cnc(N2CCOCC2)nc1`, the cytotoxicity at 70.5 h is -9.23%.

Consider `COC(=O)C1CCN(C(=O)Cn2ccc(-c3ccsc3)n2)CC1`, for which the cytotoxicity at 70.5 h is -3.32%.

Take `Cn1cc(NC(=O)N2CCCC2c2cccnc2)ccc1=O` (centres undefined): the cytotoxicity at 70.5 h is -3.14%.

Turning to `COC(=O)C1CCN(C(=O)Cn2nc(C)nc2-c2ccccc2)CC1`, the cytotoxicity at 70.5 h is -2.98%.

As to `COC(=O)C1(NCC(=O)Nc2cc(C)ccc2OC)CCCCC1`, the cytotoxicity at 70.5 h came out at 2.15%.

Regarding `Cc1noc(OCC(=O)N2CCCCC2C)n1` (centres undefined), the cytotoxicity at 70.5 h is -3.19%.

`Cc1cnn(CCNCC(=O)N2CCN(c3ccccc3)CC2)c1`: the cytotoxicity at 70.5 h was 21.4%.

Regarding `NC(=O)c1cn[nH]c1NC(=O)c1ccc2c(c1)OCO2`, the cytotoxicity at 70.5 h worked out at 1.1%.

`CCOCCC(=O)Nc1cccc(Cl)c1C(N)=O`: the cytotoxicity at 70.5 h is -0.685%.

As to `Cn1cc(CC(=O)N2CCCC(c3cc(C(F)(F)F)[nH]n3)C2)cn1` (centres undefined), the cytotoxicity at 70.5 h came to 15.9%.

For the molecule `Cn1cnc(S(=O)(=O)N2CCCCc3ccccc32)c1`, the cytotoxicity at 70.5 h was 1.57%.

`CCc1ccc(CC)c(NCc2cnc(N3CCOCC3)nc2)c1`: the cytotoxicity at 70.5 h is -2.91%.

In the case of `Cc1cc(C)n(C2CN(Cc3nc4cc(Cl)ccc4n3C)C2)n1`, the cytotoxicity at 70.5 h came out at 4.28%.

For the molecule `CCc1cnc(C(C)NC(=O)N2CCCN(CC(F)F)CC2)s1` (centres undefined), the cytotoxicity at 70.5 h was -4.42%.

As for `CC(C)(NCCCOc1ccc(C#N)cc1)c1nccs1`, the cytotoxicity at 70.5 h is -1.99%.

`CN(CCc1ccccn1)CCc1nccs1`: the cytotoxicity at 70.5 h is -8.22%.

`Cc1ccc(C(C)NC(=O)N2CCCN(CC(F)F)CC2)s1` (centres undefined): the cytotoxicity at 70.5 h is -2.75%.

As for `CCC(C)C(=O)N(CC(=O)OC)c1cccc(C)n1` (centres undefined), the cytotoxicity at 70.5 h amounted to 2.47%.

As to `CC(CNC(=O)NCc1ccoc1)N1CCc2sccc2C1` (centres undefined), the cytotoxicity at 70.5 h came out at 6.45%.

For the molecule `CC(Cn1cccn1)NC(=O)CCc1nc(C(C)(C)C)no1` (centres undefined), the cytotoxicity at 70.5 h was -2.44%.

With `Cc1nn(C)c2ncc(NC(=O)N3CCCCCC3)cc12`, the cytotoxicity at 70.5 h was -4.95%.

On to `Cc1noc(C)c1CN(C)C(=O)C1CCCc2ccccc21` (centres undefined), for which the cytotoxicity at 70.5 h is -0.492%.

Turning to `Cc1cc(C[C@@H]2CCC[C@H]2NCc2ccccc2F)on1`, the cytotoxicity at 70.5 h is -2.37%.

In the case of `COc1ccc(CN2CCC(c3cc(O)nc(C)n3)C2)c(OC)c1` (centres undefined), the cytotoxicity at 70.5 h is -3.26%.

As for `CN(C)CCN(C)C(=O)Cc1ccc2c(c1)OCCO2`, the cytotoxicity at 70.5 h stood at 0.0835%.

`Cc1nc(O)cc(C2CCN(Cc3ccc(F)c(F)c3)C2)n1` (centres undefined): the cytotoxicity at 70.5 h was -5.53%.

`Cc1cccc(CN(Cc2cccnc2)C2CC(C)(C)NC(C)(C)C2)n1`: the cytotoxicity at 70.5 h is -1.41%.

On to `CNc1nc(C2CCCN2C(C)=O)nc2c1CN(CCO)CC2` (centres undefined), for which the cytotoxicity at 70.5 h is -3.16%.
